In paper PMC9792776 (Frontiers in Pharmacology, 2022):

Key:
OATP1B3 = target: T1, OATP1B3 (Homo sapiens, UniProt Q9NPD5); assay: Transporter substrate/inhibitor assessment, OATP1B3; assay type: in vitro ADME
T1 sequence (Q9NPD5 1-702): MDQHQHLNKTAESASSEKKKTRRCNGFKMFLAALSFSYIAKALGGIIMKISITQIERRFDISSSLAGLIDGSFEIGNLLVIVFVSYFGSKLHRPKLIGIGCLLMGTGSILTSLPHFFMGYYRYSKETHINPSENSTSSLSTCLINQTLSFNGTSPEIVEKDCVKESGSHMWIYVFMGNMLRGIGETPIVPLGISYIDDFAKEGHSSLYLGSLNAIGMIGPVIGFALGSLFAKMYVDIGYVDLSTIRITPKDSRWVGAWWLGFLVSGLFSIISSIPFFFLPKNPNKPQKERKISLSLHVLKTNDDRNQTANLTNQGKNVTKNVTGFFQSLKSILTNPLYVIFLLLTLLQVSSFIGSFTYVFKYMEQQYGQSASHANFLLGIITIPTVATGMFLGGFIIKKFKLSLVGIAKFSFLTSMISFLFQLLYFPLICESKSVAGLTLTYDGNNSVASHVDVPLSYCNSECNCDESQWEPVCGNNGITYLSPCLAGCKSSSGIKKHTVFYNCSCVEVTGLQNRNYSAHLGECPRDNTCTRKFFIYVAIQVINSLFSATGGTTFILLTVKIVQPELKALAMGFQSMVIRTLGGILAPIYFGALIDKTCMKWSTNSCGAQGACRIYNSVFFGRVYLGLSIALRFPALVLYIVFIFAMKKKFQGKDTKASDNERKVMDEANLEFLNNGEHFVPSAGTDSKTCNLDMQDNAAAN

[1] = Blood/plasma (B/P) ratio in healthy volunteer blood; assay type: in vitro ADME, human
Text: Besides, the B/P ratio was obtained from healthy volunteer blood, however, in patients with CML, too many myeloid cells become granulocytes (red blood cells, platelets and several white blood cell types). So, red blood cell count might change B/P ratio in CML patients. […] Furthermore, the model simulation for liver cirrhosis patients was not validated by clinical data. We believe that further research is needed on this point.

CYP2C9 = CYP2C9 (Homo sapiens, UniProt P11712); assay: Intrinsic clearance in human recombinant CYP2C9
CYP1A2 = CYP1A2 mRNA induction in cultured human hepatocytes; assay type: cell-based; conditions: in vitro studies
OATP1B1 = target: T2, OATP1B1 (Homo sapiens, UniProt Q9Y6L6); assay: Transporter substrate/inhibitor assessment, OATP1B1; assay type: in vitro ADME
T2 sequence (Q9Y6L6 1-691): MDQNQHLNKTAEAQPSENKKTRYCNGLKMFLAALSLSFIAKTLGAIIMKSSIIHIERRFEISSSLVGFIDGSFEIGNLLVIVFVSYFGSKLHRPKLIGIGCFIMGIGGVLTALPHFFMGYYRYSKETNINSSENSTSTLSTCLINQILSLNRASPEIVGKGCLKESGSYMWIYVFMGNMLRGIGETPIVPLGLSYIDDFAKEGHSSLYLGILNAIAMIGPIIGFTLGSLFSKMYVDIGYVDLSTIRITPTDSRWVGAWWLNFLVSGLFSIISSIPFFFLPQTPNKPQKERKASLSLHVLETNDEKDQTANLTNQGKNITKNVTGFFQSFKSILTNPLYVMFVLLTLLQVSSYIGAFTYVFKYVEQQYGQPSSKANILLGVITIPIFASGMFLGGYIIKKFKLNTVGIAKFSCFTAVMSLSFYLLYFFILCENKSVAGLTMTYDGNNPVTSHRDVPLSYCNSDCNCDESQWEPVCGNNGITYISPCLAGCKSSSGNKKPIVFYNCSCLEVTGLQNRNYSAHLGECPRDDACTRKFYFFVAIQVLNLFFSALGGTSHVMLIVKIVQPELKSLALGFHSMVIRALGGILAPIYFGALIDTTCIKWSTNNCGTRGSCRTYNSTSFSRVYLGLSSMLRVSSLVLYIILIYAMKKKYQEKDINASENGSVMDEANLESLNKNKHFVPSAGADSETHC

[2] = Human mass balance study with [14C]olverembatinib (NCT04126707); assay type: in vivo
Procedure: After a 3-day washout period, they were pretreated with 200 mg of oral itraconazole once daily for 4 days to inhibit CYP3A4 (Days 5–8). […] After a 3-day washout, subjects were pretreated with 600 mg of oral rifampicin once daily for 7 days to induce CYP3A4 (Days 5–11). […] Blood samples were collected immediately before and after drug administration at 0.5, 1, 2, 4, 6, 8, 12, 24, 48, 72, and 96 h.

[3] = single radiolabeled 30 mg dose, healthy subjects

CYP2C9, sequence (P11712 whole entry): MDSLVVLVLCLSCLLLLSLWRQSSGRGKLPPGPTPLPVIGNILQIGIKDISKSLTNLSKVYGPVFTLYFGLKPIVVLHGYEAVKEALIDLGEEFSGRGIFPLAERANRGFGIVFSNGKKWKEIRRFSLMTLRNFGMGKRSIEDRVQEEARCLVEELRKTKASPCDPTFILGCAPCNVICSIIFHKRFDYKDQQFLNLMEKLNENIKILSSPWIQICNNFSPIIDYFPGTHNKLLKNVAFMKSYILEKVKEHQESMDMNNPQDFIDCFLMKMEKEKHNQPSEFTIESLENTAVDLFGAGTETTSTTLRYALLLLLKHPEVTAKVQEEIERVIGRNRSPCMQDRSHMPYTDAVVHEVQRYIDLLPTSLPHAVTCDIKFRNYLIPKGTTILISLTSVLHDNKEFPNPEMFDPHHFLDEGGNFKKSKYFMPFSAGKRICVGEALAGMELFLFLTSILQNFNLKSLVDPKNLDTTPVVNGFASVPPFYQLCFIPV

Compound: Cc1ccc(C(=O)Nc2ccc(CN3CCN(C)CC3)c(C(F)(F)F)c2)cc1C#Cc1cnc2[nH]ncc2c1 [olverembatinib, Olverembatinib]
- substrate or inhibitor of OATP1B3 (OATP1B3): neither a substrate nor inhibitor
- mean conc (N=3) ([1]; blood H): 43.5
- mean conc (N=3) ([1]; blood L): 0.395
- mean conc (N=3) ([1]; blood M): 4.01
- mean conc (N=3) ([1]; plasma H): 45.9
- mean conc (N=3) ([1]; plasma L): 0.25
- mean conc (N=3) ([1]; plasma M): 2.95
- CLint CYP2C9 (CYP2C9): 0.022 µL/min/pmol CYP
- CYP1A2 induction, strength (CYP1A2): weak
- substrate or inhibitor of OATP1B1 (OATP1B1): neither a substrate nor inhibitor
- AUC Obs. ([2]; Chinese healthy volunteers, fasting, 26.85 mg SD): 153 h?ng/mL
- Cmax ([2]; male, human, plasma, oral, Chinese healthy volunteers, fasting, 26.85 mg SD): 8.09 ng/mL
- Tmax ([2]; male, human, plasma, oral, Chinese healthy volunteers, fasting, 26.85 mg SD, read-out: Tmax Obs. (median)): 6 h
- cleared drug unchanged in feces [2, 3]: About 23.95%
- eliminated as the parent drug in urine [2, 3]: 0.02%
- dose recovered in urine ([2]; single radiolabeled 30 mg dose, healthy subjects, within 96 h): 1.57%
- dose recovered in feces ([2]; single radiolabeled 30 mg dose, healthy subjects, within 216 h): 87.68%
